Entries after “also recorded” stand apart in the source; their conditions may differ. Read-outs that look alike come from different tables or passages of the source.
Tests used:
A/Aichi/2/68 (H3N2) = assay: microbe, parasite or virus in culture; type: cell-based; settings: read-out: IC50 ± SD, H3N2
in vitro = settings: dog
[1] = test system: Influenza A/Puerto Rico/8/34 (H1N1); assay: microbe, parasite or virus in culture; settings: H1N1|PR8, MDCK, read-out: IC50 ± SD, PR8
SARS-CoV-2 = settings: read-out: IC50 against SARS-CoV-2, Full-time treatment; cited from earlier work
[2] = test system: influenza A/PR/8/34 (H1N1) virus; design: species or system KM mice; settings: mouse, in vivo; for body weight of infected mice: po
hemagglutinin (HA) = hemagglutinin (HA) (Influenza A virus, UniProt P03452)
[3] = test system: A/Puerto Rico/8/34 (H1N1) influenza virus; type: cell-based
[4] = test system: influenza A/PR/8/34 (H1N1) virus; type: cell-based
[5] = test system: Influenza A/Puerto Rico/8/34 (H1N1); type: cell-based, influenza A virus
influenza A virus = type: cell-based
[6] = test system: Influenza A/Puerto Rico/8/34 (H1N1)
[7] = test system: influenza virus A/PR/8/34 (H1N1)
[8] = mouse, in vivo, po, 10 mg/kg

Chain of hemagglutinin (HA) (P03452 18-342 limits assumed): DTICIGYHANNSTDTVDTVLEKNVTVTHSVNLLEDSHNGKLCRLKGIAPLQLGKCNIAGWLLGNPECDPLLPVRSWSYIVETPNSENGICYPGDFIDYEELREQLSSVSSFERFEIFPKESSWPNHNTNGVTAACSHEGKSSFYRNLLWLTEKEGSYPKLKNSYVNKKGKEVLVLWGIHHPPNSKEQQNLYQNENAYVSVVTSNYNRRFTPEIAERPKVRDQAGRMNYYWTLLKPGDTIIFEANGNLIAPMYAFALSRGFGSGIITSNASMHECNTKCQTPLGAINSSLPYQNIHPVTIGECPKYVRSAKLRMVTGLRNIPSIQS
Chain of hemagglutinin (HA) (P03452 344-565 limits assumed): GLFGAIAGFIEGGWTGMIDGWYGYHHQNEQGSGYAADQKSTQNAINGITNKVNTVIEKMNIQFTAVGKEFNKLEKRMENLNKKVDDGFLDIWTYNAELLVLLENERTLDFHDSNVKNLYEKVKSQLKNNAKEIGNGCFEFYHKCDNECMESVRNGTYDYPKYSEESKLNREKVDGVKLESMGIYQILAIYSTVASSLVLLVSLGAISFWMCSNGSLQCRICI

C=Cc1c(C)c2cc3nc(c4c5[nH]c(cc6nc(cc1[nH]2)C(C)=C6CC)c(C)c5C(=O)C4)[C@@H](CCC(=O)O)[C@@H]3C [PPa, pyropheophorbide a, reference compound]
IC50 (A/Aichi/2/68 (H3N2); Influenza A virus, H3N2, MDCK): 1.23 ± 1.1 µM | CC50 (in vitro): 140 ± 3.61 µM | IC50 [1]: 0.32 ± 0.28 µM

CCN(CC)CCCC(C)Nc1ccnc2cc(Cl)ccc12 (centres unmarked) [chloroquine]
IC50 (SARS-CoV-2): 10 µM

protoporphyrin IX [PPIX]
IC50 (A/Aichi/2/68 (H3N2)): 1.49 ± 0.66 µM | survival rate and mean survival time of infected mice [2]: apparently prolonged; also recorded: apparently increased | body weight of infected mice [2]: slowly increased | hemagglutinin inhibition (viral adsorption to target cells) (hemagglutinin (HA)): negative results | NP expression (green fluorescence) after treatment [3]: apparently decreased | inhibitory effect by time of addition (viral titer in supernatant) [4]: better inhibitory effect | antiviral activity with red light versus no light [5]: no significant difference | antiviral activity with increasing added lipids (influenza A virus): decreased along with the increase of lipids | IC50 ([6]; read-out: IC50 ± SD, PR8): 1.88 ± 0.85 µM | CC50 (MDCK cells): 230 ± 4.53 µM | CC90 (MDCK cells): 316 µM | CC50 (Vero-E6 cells): 120.8 ± 0.95 µM | IC50 ([7]; read-out: IC50 ± SD, After infection): > 17.8 µM | IC50 ([7]; read-out: IC50 ± SD, During infection): 8.87 ± 3.07 µM | IC50 ([7]; read-out: IC50 ± SD, Pretreatment of cell): > 17.8 µM | IC50 ([7]; read-out: IC50 ± SD, Pretreatment of virus): 1.88 ± 0.85 µM | time of maximum peak of PPIX in plasma [8]: about 2 h

CCOC(=O)C1=C[C@@H](OC(CC)CC)[C@H](NC(C)=O)[C@@H](N)C1 [oseltamivir phosphate, reference compound]
body weight of infected mice [2]: slowly increased

CC(C)CCC[C@@H](C)[C@H]1CC[C@H]2[C@@H]3CC=C4C[C@@H](OCC(=O)N[C@@H](CCCCN)C(=O)N[C@@H](CCCCN)C(=O)N[C@@H](Cc5c[nH]c6ccccc56)C(=O)N[C@@H](CCCCN)C(N)=O)CC[C@]4(C)[C@H]3CC[C@]12C [S-KKWK, reference compound]
IC50 ([6]; /Puerto Rico/8/34, 48 h): 1.85 ± 0.92 µM

From PMC7784547 (Bioorganic Chemistry, 2021)
